Literature values in paper PMC2643498 (The Journal of Biological Chemistry, 2009).

Assays:
[1] = molecular target: recombinant NCED; details: read-out: Ki (NCED)
[2] = system: AtNCED3; details: 100 μM
[3] = system: AtCCD1; details: 100 μM

abamineSG
Ki [1]: 18.5 µM | inhibition of AtNCED3 [2]: 78% | inhibition of AtCCD1 [3]: ≤ 20%
